pIC50: −log10 of the molar value.
Tests used:
BACE2 = target: T1, BACE2 (Rattus norvegicus, UniProt Q6IE75); assay: BACE inhibition by measuring cellular TMEM27 cleavage (INS-TMEM27 cells, ELISA); type: cell-based; conditions: INS-TMEM27 (Ins1e rat) cells, shed human TMEM27 by ELISA; read-out: BACE2 cell act. IC50
T1 construct: endogenous cellular BACE2 in the Ins1e rat cell line; endogenous in cells; host or cells: INS-TMEM27 (INS1e-derived rat cell line with TetOn-inducible full-length hTMEM27)
T1 sequence (Q6IE75 63-514): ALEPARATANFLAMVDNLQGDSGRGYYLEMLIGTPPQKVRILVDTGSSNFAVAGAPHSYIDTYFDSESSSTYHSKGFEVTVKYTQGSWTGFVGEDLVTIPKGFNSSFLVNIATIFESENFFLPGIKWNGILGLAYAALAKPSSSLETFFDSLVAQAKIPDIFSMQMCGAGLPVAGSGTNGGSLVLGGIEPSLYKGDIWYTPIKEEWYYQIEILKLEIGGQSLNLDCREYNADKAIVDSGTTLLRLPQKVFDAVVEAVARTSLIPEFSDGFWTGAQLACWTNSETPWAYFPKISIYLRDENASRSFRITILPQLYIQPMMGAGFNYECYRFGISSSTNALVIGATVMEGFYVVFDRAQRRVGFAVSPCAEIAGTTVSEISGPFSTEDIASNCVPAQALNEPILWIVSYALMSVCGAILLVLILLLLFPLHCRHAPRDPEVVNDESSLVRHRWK
Description: Assay for BACE Inhibition by Measuring Cellular TMEM27 Cleavage:
The assay uses the principle of inhibition of human TMEM27 cleavage by endogenous cellular BACE2 in the Ins1e rat cell line and shedding from the cell surface into the culture medium, followed by detection in an ELISA assay Inhibition of BACE2 prevents the cleavage and shedding in a dose-dependent manner.
The stable cell line “INS-TMEM27” represents an INS1e-derived cell line with inducible expression (using the TetOn system) of full-length hTMEM27 in a doxycycline-dependent manner. The cells are cultured throughout the experiment in RPMI1640+Glutamax (Invitrogen) Penicillin/Streptomycin, 10% Fetal bovine serum, […], […], 100 micrograms/ml G418 and 100 microgram/ml hygromycin and are grown inadherent culture at 37° C. in a standard CO2 cell culture incubator.
INS-TMEM27 cells are seeded in 96-well plates. After 2 days in culture, BACE2 inhibitor is added in a range of concentrations as required by the assay and after a further two hours, doxycycline is added to a final concentration of 500 ng/ml. The cells are incubated for a further 46 hours and the supernatant harvested for detection of shed TMEM27.
An ELISA assay (using a pair of mouse anti-human-TMEM27 antibodies, raised against the extracellular domain of TMEM27) is used for detection of TMEM27 in the culture medium. An EC50 for BACE2 inhibition is calculated using the ELISA readout for each inhibitor concentration with standard curve-fitting software such as XLFit for the Excel spreadsheet program.

BACE1 = target: T2, BACE1 (Homo sapiens, UniProt P56817); assay: Cellular Aβ-lowering assay a) (Aβ40 ELISA, HEK293 APP cells); type: cell-based; conditions: cellular assay a): HEK293 APP695 cells, 18-20 hrs incubation, read-out: BACE1 cell act. Aβ40 IC50
T2 construct: Human HEK293 cells which are stably transfected with a vector expressing a cDNA of the human APP wt gene (APP695); endogenous in cells; host or cells: HEK293 cells stably expressing human APP695 wt
Procedure: Cellular Aβ-Lowering Assay:
a) Human HEK293 cells which are stably transfected with a vector expressing a cDNA of the human APP wt gene (APP695) were used to assess the potency of the compounds in a cellular assay. The cells were seeded in 96-well microtiter plates in cell culture medium (Iscove, plus 10% (v/v) fetal bovine serum, glutamine, penicillin/streptomycin) to about 80% confluence and the compounds were added at a 10× concentration in 1/10 volume of medium without FCS containing 8% DMSO (final concentration of DMSO was kept at 0.8% v/v). After 18-20 hrs incubation at 37° C. and 5% CO2 in a humidified incubator the culture supernatant was harvested for the determination of Aβ40 concentrations. 96 well ELISA plates (e.g., Nunc MaxiSorb) were coated with monoclonal antibody which specifically recognize the C-terminal end of Aβ40 (Brockhaus et al., NeuroReport 9, 1481-1486; 1998). After blocking of non-specific binding sites with e.g. 1% BSA and washing, the culture supernatants were added in suitable dilutions together with a horseradish peroxidase-coupled Aβ detection antibody (e.g., antibody 4G8, Senetek, Maryland Heights, Mo.) and incubated for 5 to 7 hrs. Subsequently the wells of the microtiter plate were washed extensively with Tris-buffered saline containing 0.05% Tween 20 and the assay was developed with tetramethylbenzidine/H2O2 in citric acid buffer. After stopping the reaction with one volume 1 NH2SO4 the reaction was measured in an ELISA reader at 450 nm wavelength. The concentrations of Aβ in the culture supernatants were calculated from a standard curve obtained with known amounts of pure Aβ peptide.

T2 sequence (P56817 46-501): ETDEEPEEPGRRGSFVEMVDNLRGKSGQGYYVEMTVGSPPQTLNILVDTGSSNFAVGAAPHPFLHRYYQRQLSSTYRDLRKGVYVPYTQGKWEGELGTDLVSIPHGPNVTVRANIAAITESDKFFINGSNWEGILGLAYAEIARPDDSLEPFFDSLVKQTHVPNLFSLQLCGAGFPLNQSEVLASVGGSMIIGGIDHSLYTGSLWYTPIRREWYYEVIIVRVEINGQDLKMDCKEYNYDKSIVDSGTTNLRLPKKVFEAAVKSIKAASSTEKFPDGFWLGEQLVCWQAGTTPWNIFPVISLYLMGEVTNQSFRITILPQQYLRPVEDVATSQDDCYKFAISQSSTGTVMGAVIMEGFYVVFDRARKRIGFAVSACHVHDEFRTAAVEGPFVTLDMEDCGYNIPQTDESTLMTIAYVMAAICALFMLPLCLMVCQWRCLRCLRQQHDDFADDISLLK

Compound: Cn1cc(Cl)c(CNc2ccc(F)c([C@@]3(C)N=C(N)OC[C@]3(C)F)c2)n1 [Example 13, (4R,5R)-4-{5-[(4-Chloro-1-methyl-1H-pyrazol-3-ylmethyl)-amino]-2-fluoro-phenyl}-5-fluoro-4,5-dimethyl-5,6-dihydro-4H-[1,3]oxazin-2-ylamine]
- pIC50 (BACE2): 7.10
- pIC50 (BACE1): 7.32

Compound: CC1(C)OC(N)=N[C@](C)(c2cc(NC3CCCC3)ccc2F)C1(F)F [Example 48, (R)-4-(5-Cyclopentylamino-2-fluoro-phenyl)-5,5-difluoro-4,6,6-trimethyl-5,6-dihydro-4H-[1,3]oxazin-2-ylamine]
- pIC50 (BACE2): 5.85
- pIC50 (BACE1): 6.54

Compound: C[C@@]1(c2cc(NCc3nn(C(F)F)cc3Cl)ccc2F)CCOC(N)=N1 [Example 1, (S)-4-{5-[(4-Chloro-1-difluoromethyl-1H-pyrazol-3-ylmethyl)-amino]-2-fluoro-phenyl}-4-methyl-5,6-dihydro-4H-[1,3]oxazin-2-ylamine]
- pIC50 (BACE2): 6.74
- pIC50 (BACE1): 7.89

Compound: COc1ccccc1Nc1ccc(F)c([C@@]2(C)N=C(N)OC(C)(C)C2(F)F)c1 [Example 44, (R)-5,5-Difluoro-4-[2-fluoro-5-(2-methoxy-phenylamino)-phenyl]-4,6,6-trimethyl-5,6-dihydro-4H-[1,3]oxazin-2-ylamine]
- pIC50 (BACE2): 5.53
- pIC50 (BACE1): 5.68

Compound: C[C@]1(c2cc(NC3CCc4cc(C#N)cnc43)ccc2F)N=C(N)OCC1(F)F (mixture of isomers) [Example 22, (RS)-7-[3-((R)-2-Amino-5,5-difluoro-4-methyl-5,6-dihydro-4H-[1,3]oxazin-4-yl)-4-fluoro-phenylamino]-6,7-dihydro-5H-[1]pyrindine-3-carbonitrile]
- pIC50 (BACE2): 6.12
- pIC50 (BACE1): 7.96

Compound: C[C@]1(c2cc(NC3CCc4cc(Cl)cnc43)ccc2F)N=C(N)OCC1(F)F (mixture of isomers) [Example 23, [3-((R)-2-Amino-5,5-difluoro-4-methyl-5,6-dihydro-4H-[1,3]oxazin-4-yl)-4-fluoro-phenyl]-((RS)-3-chloro-6,7-dihydro-5H-[1]pyrindin-7-yl)-amine]
- pIC50 (BACE2): 5.77
- pIC50 (BACE1): 7.14

Compound: C[C@]1(c2cc(NCc3ccccc3F)ccc2F)N=C(N)OC[C@@H]1F [Example 7, (4R,5R)-5-Fluoro-4-[2-fluoro-5-(2-fluoro-benzylamino)-phenyl]-4-methyl-5,6-dihydro-4H-[1,3]oxazin-2-ylamine]
- pIC50 (BACE2): 6.62
- pIC50 (BACE1): 6.11

Compound: C[C@]1(c2cc(NCC3CC3)ccc2F)N=C(N)OCC1(F)F [Example 25, (R)-4-[5-(Cyclopropylmethyl-amino)-2-fluoro-phenyl]-5,5-difluoro-4-methyl-5,6-dihydro-4H-[1,3]oxazin-2-ylamine]
- pIC50 (BACE2): 5.78
- pIC50 (BACE1): 6.51

Compound: C[C@]1(c2cc(NCc3nn(C(F)F)cc3Cl)ccc2F)N=C(N)OCC1(F)F [Example 16, (R)-4-{5-[(4-Chloro-1-difluoromethyl-1H-pyrazol-3-ylmethyl)-amino]-2-fluoro-phenyl}-5,5-difluoro-4-methyl-5,6-dihydro-4H-[1,3]oxazin-2-ylamine]
- pIC50 (BACE2): 5.60
- pIC50 (BACE1): 6.95

Compound: COc1ccccc1Nc1ccc(F)c([C@@]2(C)N=C(N)OC[C@@H]2F)c1 [Example 3, (4R,5R)-5-Fluoro-4-[2-fluoro-5-(2-methoxy-phenylamino)-phenyl]-4-methyl-5,6-dihydro-4H-[1,3]oxazin-2-ylamine]
- pIC50 (BACE2): 6.01
- pIC50 (BACE1): 6.51

Compound: C[C@]1(c2cc(NCC3CC3)ccc2F)N=C(N)OC[C@@H]1F [Example 8, (4R,5R)-4-[5-(Cyclopropylmethyl-amino)-2-fluoro-phenyl]-5-fluoro-4-methyl-5,6-dihydro-4H-[1,3]oxazin-2-ylamine]
- pIC50 (BACE2): 6.79
- pIC50 (BACE1): 7.66

Compound: Cc1nc(C(C)Nc2ccc(F)c([C@@]3(C)N=C(N)OC[C@]3(C)F)c2)c(C(F)(F)F)o1 (mixture of isomers) [Example 14, (4R,5R)-5-Fluoro-4-{2-fluoro-5-[(RS)-1-(2-methyl-5-trifluoromethyl-oxazol-4-yl)-ethylamino]-phenyl}-4,5-dimethyl-5,6-dihydro-4H-[1,3]oxazin-2-ylamine]
- pIC50 (BACE2): 7.17

Reference: patent US8785436B2, “1,3-oxazines as BACE 1 and/or BACE2 inhibitors” (Hoffmann-La Roche Inc., priority 2011, dated 2014)
